What was measured:
MLE-12 cells = experiment: Cell death protective effect in lung epithelial cells against RSL3 (LDH); assay type: cell-based, rat; conditions: MLE-12, RSL3 1.0 μM, 24 hours
Procedure: In order to identify the protective effect on lung epithelial cells, MLE-12 cells were divided into 96-well plates by 5×10^3 and cultured for 18 to 24 hours. The compounds of Examples were diluted to final concentrations of 0.1 and 1.0 μM, treated in each well, and incubated for 20 minutes. RSL3 was treated to have final concentrations of 1.0 μM, respectively, and cultured for 24 hours. In order to identify the protective effect of each compound, the degree of LDH extracellular secretion was measured using cytotoxicity LDH assay kit [Dojindo; CK12]. Briefly, at the time when the treatment of the cells with RSL3 for 24 hours is completed, the supernatants containing the cells are taken by 70 μL and transferred to a new 96-well plate. The assay buffer included in the kit is added in an amount of 70 μL/well (the same amount as the sample) thereto, and then the plate is wrapped with a foil and the reaction is performed at room temperature for 15 minutes.

NIH/3T3 cells = experiment: Cell death protective effect in fibroblasts against Erastin, glutamate and RSL3 (LDH); assay type: cell-based, mouse; conditions: 24 hours
Procedure: In order to identify the protective effect on fibroblasts, NIH/3T3 cells were divided into 96-well plates by 8×10^3 and cultured for 18 to 24 hours. The compounds of Examples were diluted to final concentrations of 0.1 and 1 μM, treated in each well, and incubated for 15 to 20 minutes. Erastin, glutamate, and RSL3 were treated to have final concentrations of 3 μM, 30 mM, and 3 μM, respectively, and cultured for 24 hours. In order to identify the protective effect of each compound, the degree of LDH extracellular secretion was measured using cytotoxicity LDH assay kit [Dojindo; CK12]. Briefly, at the time when the treatment of the cells with Erastin, glutamate, and RSL3 for 24 hours is completed, the supernatants containing the cells are taken by 70 μL and transferred to a new 96-well plate. The assay buffer included in the kit is added in an amount of 70 μL/well (the same amount as the sample) thereto, and then the plate is wrapped with a foil and the reaction is performed at room temperature for 15 minutes. After observing the changed color of the sample, the stop solution was added in an amount of 35 μL/well thereto, and then the 00 inhibition value was calculated by measuring the absorbance value at a wavelength of 490 nm using an iD3 spectrophotometer.

[1] = NIH/3T3, Erastin 3 μM, compound 0.1 μM
[2] = NIH/3T3, Erastin 3 μM, compound 1.0 μM
[3] = NIH/3T3, Glutamate 30 mM, compound 0.1 μM
[4] = NIH/3T3, Glutamate 30 mM, compound 1.0 μM
[5] = NIH/3T3, RSL3 3 μM, compound 0.1 μM
[6] = NIH/3T3, RSL3 3 μM, compound 1.0 μM

SMILES	inhibition (%) (MLE-12 cells; compound 0.1 μM)	inhibition (%) (MLE-12 cells; compound 1.0 μM)	inhibition (%) (NIH/3T3 cells; [1])	inhibition (%) (NIH/3T3 cells; [2])	inhibition (%) (NIH/3T3 cells; [3])	inhibition (%) (NIH/3T3 cells; [4])	inhibition (%) (NIH/3T3 cells; [5])	inhibition (%) (NIH/3T3 cells; [6])
COCCOCc1cc(NC2CCOCC2)c2[nH]c(-c3ccccc3)cc2c1 [Example 1, 5-(2-methoxyethoxymethyl)-2-phenyl-N-tetrahydropyran-4-yl-1H-indol-7-amine]	100%	100%	99%	100%	100%	100%	100%	100%
COCCOCc1cc(NCC2CCOCC2)c2[nH]c(-c3ccccc3)cc2c1 [Example 4, 5-2(methoxyethoxymethyl)-2-phenyl-N-(tetrahydropyran-4-ylmethyl)-1H-indol-7-amine]	90%	91%	99%	99%	100%	100%	100%	100%
COCCOCc1cc(NC2CCN(C(C)=O)CC2)c2[nH]c(-c3ccccc3)cc2c1 [Example 30, 1-[4-[[5-(2-methoxyethoxymethyl)-2-phenyl-1H-indol-7-yl]amino]piperidyl]-1-ethanone]	84%	95%	6%	100%	100%	100%	100%	100%
CCOCCOCc1cc(NC2CCCC2)c2[nH]c(-c3ccccc3)cc2c1 [Example 36, N-cyclopentyl-5-(2-ethoxyethoxymethyl)-2-phenyl-1H-indol-7-amine]	89%	94%	99%	100%	100%	100%	100%	100%
COCCOCCOCc1cc(NC2CCCC2)c2[nH]c(-c3ccccc3)cc2c1 [Example 39, N-cyclopentyl-5-[2-(2-methoxyethoxy)ethoxymethyl]-2-phenyl-1H-indol-7-amine]	89%	89%	99%	100%	99%	100%	100%	100%
COCCOCc1cc(NCc2ccncc2)c2[nH]c(-c3ccccc3)cc2c1 [Example 45, 5-(2-methoxyethoxymethyl)-2-phenyl-N-(4-pyridylmethyl)-1H-indol-7-amine]	98%	100%	100%	100%	0%	97%	0%	100%
COCCOCc1cc(NC2CCOCC2)c2[nH]cc(C)c2c1 [Example 50, 5-(2-methoxyethoxymethyl)-3-methyl-N-tetrahydropyran-4-yl-1H-indol-7-amine]	0%	56%	0%	8%	99%	100%	100%	100%
COCCOCc1cc(NC2CCNCC2)c2[nH]c(-c3ccccc3)cc2c1 [Example 64, 5-((2-methoxyethoxy)methyl)-2-phenyl-N-(piperidin-4-yl)-1H-indol-7-amine]	100%	98%	99%	100%	99%	100%	100%	100%
CCOC(=O)c1ccc(NC2CCCCC2)c(N)c1 [Ferrostatin-1, reference compound]	100%	100%	17%	99%	97%	97%	100%	100%
